Test system: adult dogs
Test: Chronic oral OEA in the diet of dogs fed 25% more than MER; body weight gain and body composition by DEXA
Assay type: in vivo, dog
Description: The physiological effects of regular oral OEA administration were investigated. OEA was provided as a supplement to dogs for […] to study the effect on body weight gain and body composition. Eighteen adult dogs participated in the study. Males with less than 17.5% body fat and females with less than 20% body fat were selected. Based on maintenance energy requirements (MER,) body weight and percentage of body fat, the dogs were randomly assigned into two groups. The control group (N=9) received a standard dry adult dog food (control diet without any OEA). The test group (N=9) received a selected dose of OEA incorporated into the standard diet. The dogs were fed 25% more than their MER for eight months. During the first four months, they received their ration in one meal per day. From month four to eight, they received their ration equally divided in two meals per day. Body weight was recorded weekly and dual X-ray absorptiometry (DEXA) scans were performed at baseline and every two months. Food intake was recorded daily. There was no difference in food consumption between groups (i.e., similar caloric intake).

In the case of `CCCCCCCC/C=C\CCCCCCCC(=O)NCCO` [OEA, oleoylethanolamide], the “Lean Gain (g/kg body weight gain)” value (chronic oral OEA in diet, dogs, eight months, control diet 139) is reported as 170 g/kg body weight gain, the “Fat Gain (g/kg body weight gain)” value (chronic oral OEA in diet, dogs, eight months, control diet 1333) is reported as 853 g/kg body weight gain and the “more lean body mass gained per kilogram of body weight gain than dogs fed the control diet” value (eight month study, OEA containing diet vs control diet) is reported as 22%. For the same compound, the “more fat gained per kilogram of body weight gain by dogs fed the control diet than by dogs fed the OEA containing diet” value (eight month study, control diet vs OEA containing diet) was 56%, the body fat (end of eight month study, dogs fed 25% more than MER, OEA incorporated into standard diet, control diet 16.0%) was 14.8% and the “gain in lean body mass” value (end of eight month study, dogs fed 25% more than MER, OEA incorporated into standard diet, control diet 236.9 g) was 446.7 g. The “food consumption (caloric intake) vs control group” value (food intake recorded daily, OEA diet group vs control diet group) was “no difference”.

Source: US20140193370A1, “METHODS AND COMPOSITIONS FOR PROMOTING LEAN BODY MASS GROWTH” (NESTEC SA, priority 2011, published 2014)
